Here are results for 21 compounds from US9072698B2, “Method for screening anti-cancer compounds inhibiting function of TM4SF5 and anti-cancer composition containing chalcone compounds” (Seoul National University Industry Foundation, priority 2006, dated 2015).

In brackets after ≈: the same amount, converted by molar mass.

Common to all, as to assay type: cell-based
The subject of test [1] is A-549 (lung carcinoma). In words: In vitro cytotoxicity, sulforhodamine B (SRB) method, A-549. The following applies: Homo sapiens, A549; A-549, SRB method; read-out: cytotoxicity (ED50) A-549. The method, boiled down:
(§1)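 Cells grown in RPMI 1640 with 10% FCS at 37 °C, 5% CO2 were exposed to compounds at 30, 10, 3, 1 and 0.3 μg/ml final, with DMSO below 0.5%. Cytotoxicity was read by the standard NCI sulforhodamine B protein-staining method.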
(In general: The SRB assay estimates cell density from bound dye.)

Test [2] relates to HCT15 (colon adenocarcinoma). Nature of the test: In vitro cytotoxicity, sulforhodamine B (SRB) method, HCT15. The following applies: Homo sapiens; HCT-15, SRB method; read-out: cytotoxicity (ED50) HCT-15. The method, boiled down:
as §1

Test [3] relates to PC-3 (prostate adenocarcinoma). Nature of the test: In vitro cytotoxicity, sulforhodamine B (SRB) method, PC-3. The following applies: Homo sapiens; PC-3, SRB method; read-out: cytotoxicity (ED50) PC-3. An outline of the steps:
as §1

In the case of `O=C(/C=C/c1ccccc1O)c1ccc(NS(=O)(=O)c2cccc(O)c2)cc1` [Compound 17, 4′-(m-hydroxybenzenesulfonylamino)-2-hydroxychalcone], the IC50 in test [1] turned out to be 33 µg/mL (≈ 83.5 µM); in test [2], 32 µg/mL (≈ 80.9 µM); in test [3] it was 44 µg/mL (≈ 111 µM).

On to `Nc1ccc(S(=O)(=O)Nc2ccc(C(=O)/C=C/c3ccc(O)c(O)c3)cc2)cc1` [Compound 78, 4′-(p-aminobenzensulfonylamino)-3,4-dihydroxychalcone], for which the values for the IC50 in test [1], in test [2] and in test [3] were 10 µg/mL (≈ 24.4 µM), 5 µg/mL (≈ 12.2 µM) and 7 µg/mL (≈ 17.1 µM), respectively.

For the compound `O=C(/C=C/c1ccc(O)cc1O)c1ccc(OS(=O)(=O)c2cccc(O)c2)cc1` [Compound 96, 4′-(m-hydroxybenzenesulfonate)-2,4-dihydroxychalcone], the values for the IC50 in test [1], in test [2] and in test [3] were 7 µg/mL (≈ 17 µM), 8 µg/mL (≈ 19.4 µM) and 24 µg/mL (≈ 58.2 µM), respectively.

`O=C(/C=C/c1ccccc1O)c1ccccc1NS(=O)(=O)c1ccc(O)cc1` [Compound 14, 2′-(p-hydroxybenzenesulfonylamino)-2-hydroxychalcone]: the IC50 in test [1] worked out at 31 µg/mL (≈ 78.4 µM); in test [2], 38 µg/mL (≈ 96.1 µM); in test [3] it was 29 µg/mL (≈ 73.3 µM).

Regarding `O=C(/C=C/c1ccc(O)cc1)c1ccc(NS(=O)(=O)c2cccc(F)c2)cc1` [Compound 25, 4′-(m-fluorobenzensulfonylamino)-4-hydroxychalcone], the IC50 in test [1] stood at 51 µg/mL (≈ 128 µM); in test [2] it was 54 µg/mL (≈ 136 µM); in test [3] it was 57 µg/mL (≈ 143 µM).

For `O=C(/C=C/c1cc(O)ccc1O)c1ccc(NS(=O)(=O)c2ccc(O)cc2)cc1` [Compound 51, 4′-(p-hydroxybenzenesulfonylamino)-2,5-dihydroxychalcone], the IC50 in test [1] turned out to be 13 µg/mL (≈ 31.6 µM); in test [2] it was 6 µg/mL (≈ 14.6 µM); in test [3] it was 11 µg/mL (≈ 26.7 µM).

As to `CS(=O)(=O)Nc1ccc(C(=O)/C=C/c2ccc(O)c(O)c2)cc1` [Compound 82, 4′-(methanesulfonylamino)-3,4-dihydroxychalcone], the results for the IC50 in test [1], in test [2] and in test [3] were 17 µg/mL (≈ 51 µM), 12 µg/mL (≈ 36 µM) and 22 µg/mL (≈ 66 µM), respectively.

`O=C(/C=C/c1ccc(O)cc1)c1ccc(NS(=O)(=O)c2cccc(O)c2)cc1` [Compound 15, 4′-(m-hydroxybenzenesulfonylamino)-4-hydroxychalcone]: the IC50 in test [1] was 43 µg/mL (≈ 109 µM); in test [2], 33 µg/mL (≈ 83.5 µM); in test [3], 41 µg/mL (≈ 104 µM).

With `O=C(/C=C/c1cccc(O)c1)c1cccc(NS(=O)(=O)c2cccc(O)c2)c1` [Compound 19, 3′-(m-hydroxybenzenesulfonylamino)-3-hydroxychalcone], the IC50 was 47 µg/mL (≈ 119 µM) in test [1], 38 µg/mL (≈ 96.1 µM) in test [2] and 53 µg/mL (≈ 134 µM) in test [3].

On to `O=C(/C=C/c1ccc(O)cc1)c1ccc(OS(=O)(=O)c2ccc([N+](=O)[O-])cc2)cc1` [Compound 38, 4′-(p-nitrobenzenesulfonate)-4-hydroxychalcone], for which the IC50 in test [1] stood at 57 µg/mL (≈ 134 µM); in test [2], 52 µg/mL (≈ 122 µM); in test [3], 47 µg/mL (≈ 110 µM).

With `O=C(/C=C/c1ccc(O)c(O)c1)c1ccc(NS(=O)(=O)c2cccc([N+](=O)[O-])c2)cc1` [Compound 76, 4′-(m-nitrobenzensulfonylamino)-3,4-dihydroxychalcone], the IC50 in test [1] stood at 11 µg/mL (≈ 25 µM); in test [2], 12 µg/mL (≈ 27.2 µM); in test [3], 17 µg/mL (≈ 38.6 µM).

As to `O=C(/C=C/c1ccc(O)cc1)c1ccc(OS(=O)(=O)c2cccc(F)c2)cc1` [Compound 37, 4′-(m-fluorobenzenesulfonate)-4-hydroxychalcone], the IC50 was 37 µg/mL (≈ 92.9 µM) in test [1], 34 µg/mL (≈ 85.3 µM) in test [2] and 27 µg/mL (≈ 67.8 µM) in test [3].

For the compound `O=C(/C=C/c1ccc(O)cc1)c1ccc(NS(=O)(=O)c2cccc([N+](=O)[O-])c2)cc1` [Compound 28, 4′-(m-nitrobenzensulfonylamino)-4-hydroxychalcone], the IC50 in test [1] turned out to be 59 µg/mL (≈ 139 µM); in test [2], 54 µg/mL (≈ 127 µM); in test [3], 57 µg/mL (≈ 134 µM).

Take `O=C(/C=C/c1cccc(O)c1)c1ccc(NS(=O)(=O)c2ccc(O)cc2)cc1` [Compound 7, 4′-(p-hydroxybenzenesulfonylamino)-3-hydroxychalcone]: the IC50 was 30 µg/mL (≈ 75.9 µM) in test [1], 33 µg/mL (≈ 83.5 µM) in test [2] and 37 µg/mL (≈ 93.6 µM) in test [3].

Regarding `O=C(/C=C/c1cccc(O)c1)c1cccc(NS(=O)(=O)c2ccc(O)cc2)c1` [Compound 10, 3′-(p-hydroxybenzenesulfonylamino)-3-hydroxychalcone], the IC50 stood at 30 µg/mL (≈ 75.9 µM) in test [1], 30 µg/mL (≈ 75.9 µM) in test [2] and 32 µg/mL (≈ 80.9 µM) in test [3].

In the case of `O=C(/C=C/c1ccc(O)cc1)c1cccc(NS(=O)(=O)c2ccc(O)cc2)c1` [Compound 9, 3′-(p-hydroxybenzenesulfonylamino)-4-hydroxychalcone], the results for the IC50 in test [1], in test [2] and in test [3] were 40 µg/mL (≈ 101 µM), 24 µg/mL (≈ 60.7 µM) and 31 µg/mL (≈ 78.4 µM), respectively.

Regarding `O=C(/C=C/c1ccc(O)cc1O)c1cccc(NS(=O)(=O)c2ccc(O)cc2)c1` [Compound 54, 3′-(p-hydroxybenzenesulfonylamino)-2,4-dihydroxychalcone], the results for the IC50 in test [1], in test [2] and in test [3] were 9 µg/mL (≈ 21.9 µM), 7 µg/mL (≈ 17 µM) and 9 µg/mL (≈ 21.9 µM), respectively.

Regarding `O=C(/C=C/c1cccc(O)c1)c1ccc(OS(=O)(=O)c2cccc(O)c2)cc1` [Compound 88, 4′-(m-hydroxybenzenesulfonate)-3-hydroxychalcone], the IC50 in test [1] was determined as 32 µg/mL (≈ 80.7 µM); in test [2], 21 µg/mL (≈ 53 µM); in test [3], 28 µg/mL (≈ 70.6 µM).

Consider `O=C(/C=C/c1ccccc1O)c1ccc(NS(=O)(=O)c2ccc(O)cc2)cc1` [Compound 8, 4′-(p-hydroxybenzenesulfonylamino)-2-hydroxychalcone], for which the IC50 was determined as 31 µg/mL (≈ 78.4 µM) in test [1], 30 µg/mL (≈ 75.9 µM) in test [2] and 34 µg/mL (≈ 86 µM) in test [3].

Take `O=C(/C=C/c1ccc(O)c(O)c1)c1cccc(NS(=O)(=O)c2cccc(O)c2)c1` [Compound 64, 3′-(m-hydroxybenzenesulfonylamino)-3,4-dihydroxychalcone]: the IC50 in test [1] amounted to 3 µg/mL (≈ 7.29 µM); in test [2], 4 µg/mL (≈ 9.72 µM); in test [3] it was 7 µg/mL (≈ 17 µM).

For `O=C(/C=C/c1ccc(O)cc1)c1cccc(NS(=O)(=O)c2cccc(O)c2)c1` [Compound 18, 3′-(m-hydroxybenzenesulfonylamino)-4-hydroxychalcone], the values for the IC50 in test [1], in test [2] and in test [3] were 31 µg/mL (≈ 78.4 µM), 33 µg/mL (≈ 83.5 µM) and 39 µg/mL (≈ 98.6 µM), respectively.
